Values joined by “and” are separate entries in the source; they are usually repeats but may differ in a detail not shown here. Identical values can stand only once. Like-named read-outs stand apart in the source and are kept apart here.
What was measured:
IGF-1R = biological target: T1, IGF-1R (Homo sapiens, UniProt P08069); assay: IGF-1R inhibition assay (Caliper mobility shift); format: biochemical; settings: enzyme assay
T1 construct: purchased CARNA BIOSCIENCE 08-141
Experimental: Test compound was dissolved in DMSO at 30 mM. […] 20 nL of these compounds DMSO dilutes were dispensed into a new 384-well assay plate by Echo 550. […] 15 μL of kinase assay buffer containing IGF-1R protein and substrate was transferred to assay plate and incubate at RT for 30 minutes. Kinase assay buffer supplemented with substrate peptides was employed as low control to monitor the background. 40 μM ATP was prepared in kinase assay buffer containing and 5 μL of ATP solution was added to each well to start the reaction. The assay plate was incubated at 25° C. for 180 minutes and the reaction was stopped by adding 40 μL of 0.5 M EDTA.
Phosphorylated fluorescent-tagged peptides were differentiated from non-phosphorylated peptides by separating using Caliper EZ Reader II and the detection was directly converted to conversion ratio.

H1975 cells = assay: H1975 inhibition assay (cell proliferation, CellTiter-Glo, 72 h); format: cell-based, human; settings: cellular proliferation, double mutant EGFR
Experimental: H1975 Inhibition Assay (Cell Proliferation).
(§1) Test compounds were dissolved in DMSO at 30 mM.
(§2) The final concentration was 1,000 cells/well. Add medium only as low control.
(§3) After 72 hours incubation, remove the plates from incubator and equilibrate at room temperature for 15 minutes. Incubate the CellTiter Glo reagents (Promega, G9243) at 37° C. before the experiment. The buffer was equilibrated to room temperature and used to dissolve the substrate. To determine the cell viability, add 40 μL of CellTiter-Glo reagent into each well to be detected (at 1:1 to culture medium). Then the place the plates at room temperature for 30 min followed by read on EnSpire (PerkinElmer).
(§4) For estimation of IC50, the luminescence readout are transformed to % Inhibition by applying the following equation:

PC-9 cells = assay: PC-9 growth inhibition assay (cell proliferation, CellTiter-Glo, 72 h); format: cell-based, human; settings: cellular proliferation, PC9 cells, single mutant EGFR
Experimental: (§5) Then incubate the flasks at 37° C. until the cells detach.
as §1, §2, §3, §4

A431 cells = assay: A431 inhibition assay (cell proliferation, CellTiter-Glo, 72 h); format: cell-based, human
Experimental: as §5, §1, §2, §3, §4

[1] = biological target: T2, Exon 19 deletion EGFR (activating single mutant) in PC-9 cells (Homo sapiens, UniProt P00533, DEL746-750); assay: Exon 19 deletion EGFR PC-9 cellular autophosphorylation assay (p-EGFR ELISA); format: cell-based; settings: PC9, 2 h treatment, read-out: SM (PC9) IC50
T2 construct: cellular phosphorylation of endogenous p-EGFR; host or cells: PC9 (PC-9) human lung cell line
T2 sequence (P00533 with tags, fused parts or gaps DEL746-750): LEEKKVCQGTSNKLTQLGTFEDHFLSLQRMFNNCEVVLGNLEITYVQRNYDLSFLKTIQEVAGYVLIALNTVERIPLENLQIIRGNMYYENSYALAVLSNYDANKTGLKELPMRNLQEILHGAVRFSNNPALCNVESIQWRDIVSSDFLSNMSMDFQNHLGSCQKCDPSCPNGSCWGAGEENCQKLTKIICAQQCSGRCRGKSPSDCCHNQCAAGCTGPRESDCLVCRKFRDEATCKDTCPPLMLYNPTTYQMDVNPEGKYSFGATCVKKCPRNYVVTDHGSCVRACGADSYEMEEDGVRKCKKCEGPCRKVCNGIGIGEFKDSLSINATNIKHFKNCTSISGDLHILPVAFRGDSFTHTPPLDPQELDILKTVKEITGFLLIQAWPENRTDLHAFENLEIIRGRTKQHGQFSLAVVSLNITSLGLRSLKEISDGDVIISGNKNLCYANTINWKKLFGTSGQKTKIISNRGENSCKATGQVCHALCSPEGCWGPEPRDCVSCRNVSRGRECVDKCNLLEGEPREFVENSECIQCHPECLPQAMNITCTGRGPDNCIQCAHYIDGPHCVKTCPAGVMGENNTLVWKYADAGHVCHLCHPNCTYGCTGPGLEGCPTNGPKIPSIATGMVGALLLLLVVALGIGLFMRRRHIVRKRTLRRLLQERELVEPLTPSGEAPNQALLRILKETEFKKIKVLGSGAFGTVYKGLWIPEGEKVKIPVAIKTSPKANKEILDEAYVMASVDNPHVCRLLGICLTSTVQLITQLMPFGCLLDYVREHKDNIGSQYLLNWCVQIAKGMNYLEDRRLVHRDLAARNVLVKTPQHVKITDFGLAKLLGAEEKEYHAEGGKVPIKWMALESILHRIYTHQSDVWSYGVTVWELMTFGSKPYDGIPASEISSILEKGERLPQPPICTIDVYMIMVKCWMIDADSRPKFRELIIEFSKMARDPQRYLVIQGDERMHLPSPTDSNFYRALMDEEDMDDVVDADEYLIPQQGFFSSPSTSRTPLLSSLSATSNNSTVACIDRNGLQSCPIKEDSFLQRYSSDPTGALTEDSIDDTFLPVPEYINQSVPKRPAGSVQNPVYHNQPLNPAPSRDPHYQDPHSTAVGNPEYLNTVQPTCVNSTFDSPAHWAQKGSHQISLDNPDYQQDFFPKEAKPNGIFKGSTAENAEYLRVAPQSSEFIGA
Experimental: The human lung cell line PC9 (Exon 19 deletion EGFR) were obtained from the American type Culture Collection. […] Cells were grown in a humidified incubator at 37° C. with 5% CO2, Assays to measure cellular phosphorylation of endogenous p-EGFR in cell Iysates were carried out according to the protocol described in the R&D Systems DuoSet IC Human Phospho-EGF R ELISA (R&D Systems catalogue number # DYCI095). 40 μL of cells were seeded (10000 cells/well) in growth medium in Coming black, clear-bottomed 384-well plates and incubated at 37° C. with 5% CO2 overnight. […] Plates were incubated for a further 2 h, then following aspiration of medium, 40 μL× lysis buffer is added to each well. Greiner black high bind 384 well plates were coated with capture antibody and then blocked with 3% BSA. Following removal of block, 15 μL of lysate are transferred to the Greiner black high bind 384 well plates and incubated for 2 hours. Following aspiration and washing of the plates with PBS, 20 μL of detection antibody were added and incubated for 2 hours. […] The data obtained with each compound are exported into a suitable software package (such as Origin) to perform curve fitting analysis.

INSR = biological target: T3, INSR (Homo sapiens, UniProt P06213); assay: INSR inhibition assay (Caliper mobility shift); format: biochemical; settings: enzyme assay
T3 construct: purchased CARNA BIOSCIENCE 08-142
T3 sequence (P06213 1005-1382 limits assumed): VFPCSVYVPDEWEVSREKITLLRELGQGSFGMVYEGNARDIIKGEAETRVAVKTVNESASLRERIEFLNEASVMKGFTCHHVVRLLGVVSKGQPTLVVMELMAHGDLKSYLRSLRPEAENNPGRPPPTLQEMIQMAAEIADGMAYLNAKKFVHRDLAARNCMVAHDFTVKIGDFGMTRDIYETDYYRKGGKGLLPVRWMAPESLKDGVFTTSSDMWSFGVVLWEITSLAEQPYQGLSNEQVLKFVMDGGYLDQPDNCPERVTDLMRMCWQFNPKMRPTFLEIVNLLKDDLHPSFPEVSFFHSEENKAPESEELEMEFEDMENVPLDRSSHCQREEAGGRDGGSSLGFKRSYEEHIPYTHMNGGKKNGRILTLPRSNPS
Experimental: Test compound was dissolved in DMSO at 30 mM. […] 20 nL of these compounds DMSO dilutes were dispensed into a new 384-well assay plate by Echo 550. […] 15 μL of kinase assay buffer containing INSR protein and substrate was transferred to assay plate and incubate at RT for 30 minutes. Kinase assay buffer supplemented with substrate peptides was employed as low control to monitor the background. 40 μM ATP was prepared in kinase assay buffer containing and 5 μL of ATP solution was added to each well to start the reaction. The assay plate was incubated at 25° C. for 180 minutes and the reaction was stopped by adding 40 μL of 0.5 M EDTA.
The result was analyzed in the same manner as IGF-IR.

[2] = test system: H1975 NSCLC cells xenograft (EGFR L858R/T790M double mutant); assay: EGFR L858R/T790M double-mutant H1975 xenograft model; format: in vivo, nu/nu mice; settings: day 10 after dosing; for Tumor Size: average ± SEM, n = 9
Experimental: Appropriately transformed cells, either from ATCC cell lines, known to carry the oncogene of interest, or from deliberate transfections, are suspended in appropriate media, and 5×10^6 or 1×10^7 cells are injected into the flank of nu/nu mice. Alternatively trochar placement of fragments of in vivo passaged tumors, usually about 1 mm^3 can be used to initiate the tumors. When tumors have reached an appropriate size for the experiment, usually in the 100-300 mg range, animals are randomized into matched groups of 6-10 mice, and tumor size and given vehicle or test article by perioral gavage once or twice daily. Tumor volumes are determined using calipers. The percentage increase in the volume of a xenograft tumor on day n versus day 0 (the day when dosing of the test compound began) is calculated as (tumor volume on day n−tumor volume on day 0/tumor volume on day 0)×100. The mean percentage of tumor growth inhibition in each drug-treated group relative to the vehicle-treated group is calculated as (1−mean percent increase of tumor volume in the drug-treated group/mean percent increase of the tumor volume in the vehicle-treated group)×100. Statistical significance is evaluated using a one-tailed t test.
Tumor size was measured on day 10 after dosing.

Mouse in vivo PK study [3] = settings: male CD1 mice
Experimental: To determine the drug concentration in plasma of the compounds of the present disclosure following intravenous and oral administration in male CD 1 Mice, pharmacokinetic profile and PK parameters were obtained.
Test animals: healthy male CD1 mice (body weight 20-30 g, 18 mice, free access to food and water), provided by Sibeifu laboratory. […]
Samples collection: the healthy animals were used, weighed the bodyweight and marked at tail and cage card prior to dosing. Blood samples (0.03 mL per time point) were collected from dorsal metatarsal vein at 0.083, 0.25, 0.5, 1, 2, 4, 8, 24 h post dose for IV group and at 0.25, 0.5, 1, 2, 4, 8, 24 h post dose for PO group, the terminal time point was collected from heart (˜0.3 mL). The blood samples were put into the tube with heparin-Na coated and then put on the cold box, centrifuged at 4° C. 4000 g, 5 minutes immediately after collecting all samples per time point to get plasma. The plasma samples were stored in a freezer at −75±15° C. prior to analysis.
The drug concentration was determined by LC/MS/MS method, and the PK parameters were observed as follows.

Mouse in vivo PK study [4] = settings: male CD1 mice; remark: listed apart in the source
[5] = biological target: T4, L858R/T790M double mutant EGFR in H1975 cells (Homo sapiens, UniProt P00533, L858R/T790M); assay: L858R/T790M double mutant H1975 autophosphorylation inhibition assay (ELISA); format: cell-based; settings: cellular EGFR autophosphorylation, H1975, 2 h treatment; read-out: DM (H1975) IC50
T4 construct: endogenous in cells; host or cells: H1975 cells
T4 sequence (P00533 25-1210 T790M/L858R): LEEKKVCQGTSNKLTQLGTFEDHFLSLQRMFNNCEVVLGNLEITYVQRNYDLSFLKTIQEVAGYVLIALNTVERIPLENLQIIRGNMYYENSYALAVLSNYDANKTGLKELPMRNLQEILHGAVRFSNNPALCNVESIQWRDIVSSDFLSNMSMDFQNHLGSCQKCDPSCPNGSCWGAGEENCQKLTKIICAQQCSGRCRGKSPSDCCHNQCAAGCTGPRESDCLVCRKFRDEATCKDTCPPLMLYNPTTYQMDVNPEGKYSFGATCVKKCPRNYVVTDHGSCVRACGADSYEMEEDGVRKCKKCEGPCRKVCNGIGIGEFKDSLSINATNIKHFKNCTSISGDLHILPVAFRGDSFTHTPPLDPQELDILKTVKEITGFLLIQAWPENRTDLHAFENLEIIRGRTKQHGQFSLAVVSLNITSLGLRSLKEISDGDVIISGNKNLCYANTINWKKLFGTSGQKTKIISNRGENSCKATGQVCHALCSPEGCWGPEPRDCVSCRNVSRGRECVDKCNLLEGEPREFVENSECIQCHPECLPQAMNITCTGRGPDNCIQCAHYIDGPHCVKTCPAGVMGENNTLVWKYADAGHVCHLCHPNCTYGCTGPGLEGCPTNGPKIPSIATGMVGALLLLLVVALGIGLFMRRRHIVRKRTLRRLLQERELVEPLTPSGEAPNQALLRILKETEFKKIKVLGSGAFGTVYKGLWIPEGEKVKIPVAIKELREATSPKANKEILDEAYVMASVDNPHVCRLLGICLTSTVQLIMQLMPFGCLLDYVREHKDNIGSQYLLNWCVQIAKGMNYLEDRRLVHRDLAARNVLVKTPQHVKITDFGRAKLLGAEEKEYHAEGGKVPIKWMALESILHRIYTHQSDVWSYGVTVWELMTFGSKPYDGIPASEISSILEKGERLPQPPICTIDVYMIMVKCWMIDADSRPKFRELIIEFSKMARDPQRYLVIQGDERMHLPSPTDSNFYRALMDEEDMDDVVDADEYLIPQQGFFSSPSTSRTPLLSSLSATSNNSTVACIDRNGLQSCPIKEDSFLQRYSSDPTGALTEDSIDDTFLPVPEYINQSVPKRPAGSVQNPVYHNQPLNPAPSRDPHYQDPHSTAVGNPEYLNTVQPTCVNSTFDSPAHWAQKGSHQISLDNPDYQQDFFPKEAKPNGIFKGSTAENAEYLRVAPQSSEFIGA

[6] = biological target: hERG channel (HEK 293 cell line stably expressing hERG channel) (Homo sapiens, UniProt Q12809); assay: cell-based
hERG channel (HEK 293 cell line stably expressing hERG channel), sequence (Q12809 whole entry): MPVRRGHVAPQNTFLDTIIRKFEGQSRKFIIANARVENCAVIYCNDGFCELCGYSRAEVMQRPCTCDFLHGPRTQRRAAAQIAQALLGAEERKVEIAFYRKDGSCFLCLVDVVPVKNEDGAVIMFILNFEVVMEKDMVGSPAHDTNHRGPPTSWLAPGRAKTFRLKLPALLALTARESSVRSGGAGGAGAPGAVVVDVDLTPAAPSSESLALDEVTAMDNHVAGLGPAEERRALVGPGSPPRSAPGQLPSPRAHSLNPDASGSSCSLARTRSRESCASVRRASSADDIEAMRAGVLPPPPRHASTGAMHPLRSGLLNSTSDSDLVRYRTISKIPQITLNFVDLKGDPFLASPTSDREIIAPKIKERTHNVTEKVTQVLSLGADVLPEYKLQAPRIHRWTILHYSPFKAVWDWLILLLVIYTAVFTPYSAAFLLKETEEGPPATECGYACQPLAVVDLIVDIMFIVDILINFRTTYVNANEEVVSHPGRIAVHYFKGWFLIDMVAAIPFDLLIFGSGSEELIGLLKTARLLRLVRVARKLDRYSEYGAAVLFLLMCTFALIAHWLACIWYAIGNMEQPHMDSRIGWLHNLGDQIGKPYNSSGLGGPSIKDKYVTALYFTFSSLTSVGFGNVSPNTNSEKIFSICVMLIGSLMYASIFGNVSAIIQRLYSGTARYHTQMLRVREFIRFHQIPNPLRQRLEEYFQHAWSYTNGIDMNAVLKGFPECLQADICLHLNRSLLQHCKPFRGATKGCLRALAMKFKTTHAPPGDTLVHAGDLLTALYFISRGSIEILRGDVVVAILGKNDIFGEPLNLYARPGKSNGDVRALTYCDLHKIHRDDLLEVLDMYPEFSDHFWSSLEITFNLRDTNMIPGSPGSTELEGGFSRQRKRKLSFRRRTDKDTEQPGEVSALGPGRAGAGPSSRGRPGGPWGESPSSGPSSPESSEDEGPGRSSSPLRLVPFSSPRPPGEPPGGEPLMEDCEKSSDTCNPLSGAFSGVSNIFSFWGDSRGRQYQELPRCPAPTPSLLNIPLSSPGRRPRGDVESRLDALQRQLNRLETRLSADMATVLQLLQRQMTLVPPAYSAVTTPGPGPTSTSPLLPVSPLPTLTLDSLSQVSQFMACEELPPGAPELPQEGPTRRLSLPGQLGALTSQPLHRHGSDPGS

[7] = biological target: Wild type EGFR in A431 cells (Homo sapiens, UniProt P00533); settings: WT (A431) IC50 nM, cellular EGFR autophosphorylation, A431, 2 h treatment then EGF stimulation 10 min
[8] = NCI-H1975 cells, read-out: NCI-H1975 IC50 (nM) DM
[9] = cellular proliferation, wild type EGFR, read-out: A431 IC50 (nM) WT
[10] = Homo sapiens, NCI-H1975, 72 h, read-out: NCI-H1975 IC50 (nM) DM
[11] = mouse, plasma, 10 mg/kg PO, read-out: T1/2 (PO) (converted)
[12] = Homo sapiens, PC-9, 72 h, read-out: PC9 IC50 (nM) SM
[13] = Homo sapiens, A-431, 72 h, cellular proliferation, wild type EGFR, read-out: A431 IC50 (nM) WT

T1 sequence (P08069 959-1367 limits assumed): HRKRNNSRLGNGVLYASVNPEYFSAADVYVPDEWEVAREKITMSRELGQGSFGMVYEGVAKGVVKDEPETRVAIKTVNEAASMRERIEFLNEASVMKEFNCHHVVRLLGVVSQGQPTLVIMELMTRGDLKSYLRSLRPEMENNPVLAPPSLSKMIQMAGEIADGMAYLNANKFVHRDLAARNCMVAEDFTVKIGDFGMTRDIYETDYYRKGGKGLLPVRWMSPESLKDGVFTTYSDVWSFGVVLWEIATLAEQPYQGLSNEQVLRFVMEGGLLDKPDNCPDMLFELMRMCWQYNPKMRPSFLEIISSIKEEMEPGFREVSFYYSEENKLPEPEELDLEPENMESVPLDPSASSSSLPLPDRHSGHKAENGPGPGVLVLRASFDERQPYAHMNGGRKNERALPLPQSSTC

Row | SMILES | IC50 (IGF-1R) | IC50 (H1975 cells; [8]) | IC50 (PC-9 cells; read-out: PC9 IC50 (nM) SM) | IC50 (A431 cells; [9]) | IC50 [1] | IC50 (INSR) | IC50 (H1975 cells; [10]) | IC50 [5] | IC50 [6] | IC50 (PC-9 cells; [12]) | IC50 (A431 cells; [13]) | IC50 [7] | further results
1 | C=CC(=O)Nc1cc(Nc2nccc(-c3c[nH]c4ccccc34)n2)c(OC)cc1N(C)CCN(C)C [AZD5104, reference compound] | 102 nM | 2.95 nM and 3.06 nM and 4.05 nM | 1.34 nM and 2.27 nM and 1.92 nM | 95.2 nM | 4.04 nM and 4.64 nM and 5.59 nM and 5.83 nM | 94.8 nM |  |  |  |  |  |  | IC50 (H1975 cells; NCI-H1975 cells, listed as AZD-5104, read-out: NCI-H1975 IC50 (nM) DM): 3.9 nM; IC50 (PC-9 cells; listed as AZD-5104, read-out: PC9 IC50 (nM) SM): 1.57 nM
2 | C=CC(=O)Nc1cc(Nc2nccc(-c3cn(C)c4ccccc34)n2)c(OC)cc1N(C)CCN(C)C [AZD9291, reference compound] | 455 nM | […] | 7.43 nM |  |  | […] | 7.16 nM |  |  |  |  |  | TGI (tumor growth inhibition) ([2]; 5 mg/kg): 107.63%; Tumor Size ([2]; 5 mg/kg): 123 ± 39 mm^3; IC50 (H1975 cells; NCI-H1975 cells, listed as AZD-9291, read-out: NCI-H1975 IC50 (nM) DM): […]; IC50 (A431 cells; read-out: A431 IC50 (nM) WT, cellular proliferation, wild type EGFR): […]
3 | C=CC(=O)Nc1cc(Nc2nccc(-c3cc(C#N)c4c(c3)c(C)cn4C)n2)c(OC)cc1N(C)CCN(C)C [Example 2, N-(5-((4-(7-Cyano-1,3-dimethyl-1H-indol-5-yl)pyrimidin-2-yl)amino)-2-((2-(dimethylamino)ethyl)(methyl)amino)-4-methoxyphenyl)acrylamide] | 1120 nM | 3.45 nM | 3.22 nM | 3680 nM | 7.06 nM and 5.4 nM | 1820 nM | 4.77 nM | 4.29 nM and 2.54 nM | 6570 nM | 4.18 nM | 2120 nM | 77.1 nM and 166 nM | AUC (Mouse in vivo PK study [3]; mouse, plasma, 2 mg/kg IV): 937 ng·h/mL; F (Mouse in vivo PK study [4]; 2 mg/kg IV, 10 mg/kg PO): 20.8%; clearance (Mouse in vivo PK study [4]; mouse, plasma, 2 mg/kg IV): 35.5 mL/min/kg; half-life (Mouse in vivo PK study [4]; mouse, plasma, 2 mg/kg IV, read-out: T1/2 (IV) (converted)): 1.5 h; AUC (Mouse in vivo PK study [4]; mouse, plasma, 10 mg/kg PO): 976 ng·h/mL; Cmax (Mouse in vivo PK study [4]; mouse, plasma, 10 mg/kg PO): 119 ng/mL; half-life (Mouse in vivo PK study [4]; [11]): 2.57 h; TGI (tumor growth inhibition) ([2]; 5 mg/kg): 96.93%; TRTV/CRTV (relative tumor volume) ([2]; 5 mg/kg): 19.70%; Tumor Size ([2]; 5 mg/kg): 230 ± 93 mm^3; TGI (tumor growth inhibition) ([2]; 15 mg/kg): 115.76%; TRTV/CRTV (relative tumor volume) ([2]; 15 mg/kg): 3.93%; Tumor Size ([2]; 15 mg/kg): 46 ± 32 mm^3; TGI (tumor growth inhibition) ([2]; 30 mg/kg): 115.52%; TRTV/CRTV (relative tumor volume) ([2]; 30 mg/kg): 3.92%; Tumor Size ([2]; 30 mg/kg): 45 ± 19 mm^3
4 | C=CC(=O)Nc1cc(Nc2nccc(-c3cc(C#N)cc4c3ccn4C)n2)c(OC)cc1N(C)CCN(C)C [Example 4, N-(5-((4-(6-Cyano-1-methyl-1H-indol-4-yl)pyrimidin-2-yl)amino)-2-((2-(dimethylamino)ethyl)(methyl)amino)-4-methoxyphenyl)acrylamide] | 831 nM |  |  |  | 10.9 nM | 965 nM | 1.03 nM | 1.98 nM | 2230 nM | 1.91 nM | 1460 nM | 69.5 nM | F (Mouse in vivo PK study [3]; 1 mg/kg IV, 10 mg/kg PO): 15%; AUC (Mouse in vivo PK study [3]; mouse, plasma, 1 mg/kg IV): 96 ng·h/mL; clearance (Mouse in vivo PK study [3]; mouse, plasma, 1 mg/kg IV): 183 mL/min/kg; half-life (Mouse in vivo PK study [3]; mouse, plasma, 1 mg/kg IV, read-out: T1/2 (IV) (converted)): 0.576 h; AUC (Mouse in vivo PK study [4]; mouse, plasma, 10 mg/kg PO): 225 ng·h/mL; Cmax (Mouse in vivo PK study [4]; mouse, plasma, 10 mg/kg PO): 80.2 ng/mL; half-life (Mouse in vivo PK study [4]; [11]): 7.3 h
5 | C=CC(=O)Nc1cc(Nc2nccc(-n3nc(N(C)C)c4ccsc43)n2)c(OC)cc1N(C)CCN(C)C [Example 5, N-(5-((4-(3-(Dimethylamino)-1H-thieno[2,3-c]pyrazol-1-yl)pyrimidin-2-yl)amino)-2-((2-(dimethylamino)ethyl)(methyl)amino)-4-methoxyphenyl) acrylamide] | 1590 nM | 3.58 nM | 2.9 nM | 2210 nM | 17.1 nM | 2140 nM | 5.86 nM | 6.46 nM | 3490 nM | 4.86 nM | 1300 nM | 148 nM | 
6 | C=CC(=O)Nc1cc(Nc2nccc(-c3cc(C#N)c4ccn(C)c4c3)n2)c(OC)cc1N(C)CCN(C)C [Example 7, N-(5-((4-(4-Cyano-1-methyl-1H-indol-6-yl)pyrimidin-2-yl)amino)-2-((2-(dimethylamino)ethyl)(methyl)amino)-4-methoxyphenyl)acrylamide] | 390 nM |  |  |  | 33 nM | 621 nM | 4.76 nM | 8.26 nM | 1090 nM | 7.38 nM | 2170 nM | 302 nM | 
7 | C=CC(=O)Nc1cc(Nc2nccc(-n3nc(N(C)C)c4ccccc43)n2)c(OC(F)F)cc1N(C)CCN(C)C [Example 18, N-(4-(Difluoromethoxy)-5-((4-(3-(dimethylamino)-1H-indazol-1-yl)pyrimidin-2-yl)amino)-2-((2-(dimethylamino)ethyl)(methyl)amino)phenyl) acrylamide] | 1160 nM |  |  |  | 5.87 nM | 968 nM | 2.66 nM | 3.94 nM | 1680 nM | 1.79 nM | 1240 nM | 49.1 nM | 
8 | C=CC(=O)Nc1cc(Nc2nccc(-n3nc(N(C)C)c4ncccc43)n2)c(OC(F)F)cc1N(C)CCN(C)C [Example 19] | 1680 nM |  |  |  | 14.7 nM | 1750 nM | 2.82 nM | 5.35 nM | 1100 nM | 3.78 nM | 953 nM | 92.8 nM | 
9 | C=CC(=O)Nc1cc(Nc2nccc(-n3nc(N(C)C)c4ncccc43)n2)c(OCC(F)F)cc1N(C)CCN(C)C [Example 21, N-(4-(2,2-Difluoroethoxy)-5-((4-(3-(dimethylamino)-1H-pyrazolo[4,3-b]pyridin-1-yl)pyrimidin-2-yl)amino)-2-(N-(2-(dimethylamino)ethyl)-N-methylamino)phenyl)acrylamide] | 1510 nM |  |  |  | 23.8 nM | 2730 nM | 6.84 nM | 12.2 nM | 3230 nM | 7.21 nM | 1710 nM | 192 nM | 
10 | C=CC(=O)Nc1cc(Nc2nccc(-n3nc(NCC)c4ncccc43)n2)c(OCC(F)F)cc1N(C)CCN(C)C [Example 22, N-(4-(2,2-Difluoroethoxy)-2-((2-(dimethylamino)ethyl)(methyl)amino)-5-((4-(3-(ethylamino)-1H-pyrazolo[4,3-b]pyridin-1-yl)pyrimidin-2-yl)amino)phenyl)acrylamide] | 5650 nM |  |  |  | 5.79 nM | 2530 nM | 3.57 nM | 4.54 nM |  | 1.79 nM | 675 nM | 35 nM | 
